According to US6652890B2, “Tea catechins as cancer specific proliferation inhibitors” (Purdue Research Foundation, priority 1999, dated 2003):
pEC50: −log10 of the molar value. Several values for one entry are separate records, joined by “and”; a condition that tells them apart may be missing. Equal values may be shown once. Read-outs that look alike come from different tables or passages of the source.

Molecular target: T1, tNOX activity of intact 4T1 mouse mammary cells (Mus musculus, UniProt Q8R0Z2)
T1 construct: endogenous in cells; host or cells: 4T1 mouse mammary carcinoma cells (intact)
T1 sequence (Q8R0Z2 1-598): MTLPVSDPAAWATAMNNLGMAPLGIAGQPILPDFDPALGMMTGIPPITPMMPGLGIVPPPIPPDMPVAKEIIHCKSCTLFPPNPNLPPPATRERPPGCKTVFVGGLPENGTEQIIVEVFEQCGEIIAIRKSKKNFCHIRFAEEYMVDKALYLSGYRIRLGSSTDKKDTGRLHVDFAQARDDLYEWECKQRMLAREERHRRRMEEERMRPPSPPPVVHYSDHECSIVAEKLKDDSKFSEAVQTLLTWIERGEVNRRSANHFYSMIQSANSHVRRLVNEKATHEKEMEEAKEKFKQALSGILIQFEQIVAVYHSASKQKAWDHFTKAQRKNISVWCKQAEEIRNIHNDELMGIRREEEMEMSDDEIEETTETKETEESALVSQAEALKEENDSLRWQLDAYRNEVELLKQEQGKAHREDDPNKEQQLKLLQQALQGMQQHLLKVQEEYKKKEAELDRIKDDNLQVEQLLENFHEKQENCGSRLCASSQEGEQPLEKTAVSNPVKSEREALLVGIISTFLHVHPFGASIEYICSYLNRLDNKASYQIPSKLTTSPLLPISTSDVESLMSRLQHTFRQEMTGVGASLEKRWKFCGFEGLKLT
Assay: Inhibition of tNOX (NADH oxidase) activity of intact 4T1 cells
Format: cell-based
Description: A mouse mammary tumor subpopulation line 4T1 arising from a BALB/cf C3H mouse was grown in DME-10, Dulbecco's modified Eagle's medium supplemented with 5% fetal calf serum, 5% newborn calf serum, 1 mM mixed non-essential amino acids, 2 mM L-glutamine, penicillin (100 units/ml), and streptomycin (100 μg/ml) (Miller et al., 1987, Brit. J. Can. 56:561-569 and Miller et al., 1990, Invasion Metastasis 10:101-112).
NADH oxidase activity was determined as the disappearance of NADH measured at 340 nm in a reaction mixture containing 25 mM Tris-Mes buffer (pH 7.2), 1 mM KCN, and 150 μM NADH at 37° C. Activity was measured using a Hitachi U3210 spectrophotometer with stirring and continuous recording over two intervals of 5 min each. A millimolar extinction coefficient of 6.22 was used to determine specific activity.
NADH oxidase activity was determined as the disappearance of NADH measured at 340 nm in a reaction mixture containing 25 mM Tris-Mes buffer (pH 7.2), 1 mM KCN, and 150 μM NADH at 37° C. Activity was measured at 340 nm with reference at 430 nm using an SLM Aminco DW-2000 spectrophotometer (Milton Roy, Rochester, N.Y.) in the dual beam mode of operation with stirring and continuous recording over two intervals of 5 min each. A millimolar extinction coefficient of 6.22 was used to determine specific activity.

## (−) - epigallocatechin gallate [EGCg]
EC concentration 0 M
  tNOX inhibition by EGCg, EC>90: 10^−7 M
EC concentration 10^−4 M
  tNOX inhibition by EGCg, EC>90: 10^−8 M
EC concentration 10^−6 M
  tNOX inhibition by EGCg, EC>90: 10^−8 M
EC concentration 10^−8 M
  tNOX inhibition by EGCg, EC>90: 10^−7 M
In the presence of 10^−4 M EC, read-out: EC50 for inhibition of the drug-responsive component of the plasma membrane NADH oxidase
  pEC50: 8.70
read-out: tNOX inhibition by EGCg, EC50, EC concentration 0 M
  pEC50: ~8.00 and 8.00
read-out: tNOX inhibition by EGCg, EC50, EC concentration 10^−4 M
  pEC50: 9.30
read-out: tNOX inhibition by EGCg, EC50, EC concentration 10^−6 M
  pEC50: 9.00
read-out: tNOX inhibition by EGCg, EC50, EC concentration 10^−8 M
  pEC50: 8.00
With both 10^−6 and 10^−4 M EC
  Enhancement of the efficacy of EGCg inhibition: ≥ 10 fold
